Measured values: patent EP4786455A1, “NOVEL PHTHALAZINE DERIVATIVE COMPOUND AS SOS1 INHIBITOR, AND USE THEREOF” (Hanmi Pharmaceutical Co., Ltd., priority 2023, dated 2025)

The compounds below were run against T1, SOS1 (Homo sapiens, UniProt Q07889) (assay: Inhibitory activity on SOS1-mediated GTP exchange (HTRF / TR-FRET nucleotide exchange assay on KRAS G12C)). Details: SOS1-mediated GTP exchange on GST-KRAS G12C (residues 2-169); SOS1-Strep catalytic domain (564-1049); GTP-DY-647P1; HTRF signal; 5-point concentration series up to 1,000 nM.
T1 construct: comprising amino acid residues 564-1049 corresponding to the catalytic domain; purchased Reaction Biology Corp. SOS1-Strep #MSC-11-502; GST-KRAS G12C #MSC-11-538
T1 sequence (Q07889 564-1049): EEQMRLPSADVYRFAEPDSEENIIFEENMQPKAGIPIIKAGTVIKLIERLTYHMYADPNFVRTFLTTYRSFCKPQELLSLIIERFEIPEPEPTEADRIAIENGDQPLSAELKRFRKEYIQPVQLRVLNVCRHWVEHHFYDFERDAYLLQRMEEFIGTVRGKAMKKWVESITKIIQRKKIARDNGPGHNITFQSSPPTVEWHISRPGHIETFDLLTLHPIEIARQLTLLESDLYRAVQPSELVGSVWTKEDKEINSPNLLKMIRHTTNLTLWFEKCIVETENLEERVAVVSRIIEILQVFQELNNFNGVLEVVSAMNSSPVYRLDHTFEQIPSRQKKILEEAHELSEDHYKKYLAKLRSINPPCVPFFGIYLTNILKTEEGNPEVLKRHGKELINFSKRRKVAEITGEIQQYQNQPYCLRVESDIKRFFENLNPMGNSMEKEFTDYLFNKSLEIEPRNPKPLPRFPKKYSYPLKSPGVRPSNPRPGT
Assay type: biochemical
Description: To evaluate whether the SOS1-mediated nucleotide exchange activity on KRAS G12C is inhibited by the compounds of the above Examples, a homogeneous time-resolved fluorescence (homogenous time-resolved fluorescence, HTRF) assay was performed using GST-KRAS G12C (#MSC-11-538) and SOS1-Strep (#MSC-11-502) obtained from Reaction Biology Corp. (USA, MA). The activity of SOS1 was determined by measuring the amount of GTP bound to the KRAS G12C protein based on the principle of time-resolved fluorescence resonance energy transfer (time-resolved fluorescence energy transfer, TR-FRET). Terbium (Terbium) conjugated to an anti-GST antibody bound to the GST tag of the GST-KRAS G12C protein served as a FRET donor, and GTP bound to the KRAS G12C protein was labeled with the fluorophore DY-647P1, serving as a FRET acceptor. Based on this principle, a higher HTRF or FRET signal is observed as more GTP is bound to KRAS G12C due to the SOS1-mediated exchange reaction in the assay.
In summary, a GST-labeled KRAS G12C protein (comprising amino acid residues 2-169), a […] SOS1 protein (comprising amino acid residues 564-1049 corresponding to the catalytic domain), an anti-GST antibody, labeled nucleotide GTP-DY-647P1, and the test compound were mixed in a buffer solution containing 20 mM HEPES (pH 7.4), 150 mM NaCl, 5 mM MgCl2, 1 mM dithiothreitol (DTT), 0.05% BSA, and 0.0025% NP40. The mixture was dispensed into a 384-well plate, incubated at room temperature, and the HTRF signal was measured using a PHERAstar microplate reader (BMG Labtech). The excitation wavelength was 337 nm, and emission was measured at 620/665 nm. A background signal value was determined from fluorescence measurements obtained in the absence of SOS1 protein and was subtracted from all measured HTRF values. A control value was determined from fluorescence measurements obtained in the absence of the synthesized compounds and was set as the 100% reference. Fluorescence signals were measured at compound concentrations of 0.1, 1, 10, 100, and 1,000 nM (5 points, 10-fold) or 1.6, 8, 40, 200, and 1,000 nM (5 points, 5-fold). The 50% inhibitory concentration (IC50) values of the compounds were calculated using GraphPad Prism.
IC50 values were denoted as +++ when 50 nM or less, ++ when greater than 50 nM and 100 nM or less, and + when greater than 100 nM.
Compound `CNc1cc2c(N[C@H](C)c3cc(N)cc(C(F)(F)F)c3)nnc(C)c2cc1C(=O)N1CCOCC1` [Example 25, (R)-(1-((1-(3-amino-5-(trifluoromethyl)phenyl)ethyl)amino)-4-methyl-7-(methylamino)phthalazin-6-yl)(morpholino)methanone] has an IC50 of no more than 50 nM. `CNc1cc2c(N[C@H](C)c3cc(N)cc(C(F)F)c3F)nnc(C)c2cc1C(=O)N1CCOCC1` [Example 26, (R)-(1-((1-(5-amino-3-(difluoromethyl)-2-fluorophenyl)ethyl)amino)-4-methyl-7-(methylamino)phthalazin-6-yl)(morpholino)methanone] was tested, and the IC50 was no more than 50 nM. With `CNc1cc2c(N[C@H](C)c3cccc(C(F)(F)CO)c3)nnc(C)c2cc1C(=O)N1CCOCC1` [Example 27, (R)-(1-((1-(3-(1,1-difluoro-2-hydroxyethyl)phenyl)ethyl)amino)-4-methyl-7-(methylamino)phthalazin-6-yl)(morpholino)methanone] the IC50 was no more than 50 nM. Work on `COc1cc2c(N[C@H](C)c3cccc(C#N)c3C)nnc(C)c2cc1CN1CCOCC1` [Example 28, (R)-3-(1-((7-methoxy-4-methyl-6-(morpholinomethyl)phthalazin-1-yl)amino)ethyl)-2-methylbenzonitrile] yielded an IC50 of no more than 50 nM. With `CNc1cc2c(N[C@H](C)c3cccc(C#N)c3C)nnc(C)c2cc1CN1CCOCC1` [Example 29, (R)-2-methyl-3-(1-((4-methyl-7-(methylamino)-6-(morpholinomethyl)phthalazin-1-yl)amino)ethyl)benzonitrile] the IC50 was no more than 50 nM. For `Cc1c(C#N)cccc1[C@@H](C)Nc1nnc(C)c2cc(CN3CCOCC3)c(NC3CCCC3)cc12` [Example 30, (R)-3-(1-((7-(cyclopentylamino)-4-methyl-6-(morpholinomethyl)phthalazin-1-yl)amino)ethyl)-2-methylbenzonitrile], the IC50 was no more than 50 nM. In the case of `Cc1c(C#N)cccc1[C@@H](C)Nc1nnc(C)c2cc(CN3CCN(C4CC4)CC3)c(NC3CCCC3)cc12` [Example 31, (R)-3-(1-((7-(cyclopentylamino)-6-((4-cyclopropylpiperazin-1-yl)methyl)-4-methylphthalazin-1-yl)amino)ethyl)-2-methylbenzonitrile], the IC50 is reported as no more than 50 nM. For `COc1cc2c(N[C@H](C)c3cccc(C#N)c3C)nnc(C)c2cc1C(=O)N1CCOCC1` [Example 32, (R)-3-(1-((7-methoxy-4-methyl-6-(morpholine-4-carbonyl)phthalazin-1-yl)amino)ethyl)-2-methylbenzonitrile], the IC50 was no more than 50 nM. Compound `Cc1c(C#N)cccc1[C@@H](C)Nc1nnc(C)c2cc(C(=O)N3CCOCC3)c(NC3CCCC3)cc12` [Example 33] has an IC50 of no more than 50 nM.
